ChEMBL document CHEMBL3217559, “Monocyte and macrophage selective anti-inflammatory kinase inhibitors” (Medchemcomm, 2012)

Tests used:
[1] = target: Mitogen-activated protein kinase 14 (Homo sapiens, UniProt Q16539); assay: Inhibition of p38 MAP kinase alpha (unknown origin) after 1 hr by Z'-lyte assay
HuT78 [2] = assay: Drug metabolism in intact human HUT78 cells assessed as 5-(4-{6-Amino-5-[(2,4-difluorophenyl)carbonyl]-2-oxopyridiny1(2H)-yl}-3,5-difluorophenoxy)-L-norvaline formation per million cells at 2.5 uM after 6 hrs by LC/MS/MS analysis; type: ADME, cell-based; conditions: hut78, 6 h
Liver carboxylesterase 1 [3] = target: T1, Liver carboxylesterase 1 (Homo sapiens, UniProt P23141); assay: Drug metabolism in human U937 cell lysate assessed as human CE1-mediated 5-(4-{6-Amino-5-[(2,4-difluorophenyl)carbonyl]-2-oxopyridiny1(2H)-yl}-3,5-difluorophenoxy)-L-norvaline formation at 2.5 uM after 10 to 80 mins by LC/MS/MS analysis; type: ADME, cell-based; conditions: u-937, 2.5 µM
T1 sequence (P23141 whole entry): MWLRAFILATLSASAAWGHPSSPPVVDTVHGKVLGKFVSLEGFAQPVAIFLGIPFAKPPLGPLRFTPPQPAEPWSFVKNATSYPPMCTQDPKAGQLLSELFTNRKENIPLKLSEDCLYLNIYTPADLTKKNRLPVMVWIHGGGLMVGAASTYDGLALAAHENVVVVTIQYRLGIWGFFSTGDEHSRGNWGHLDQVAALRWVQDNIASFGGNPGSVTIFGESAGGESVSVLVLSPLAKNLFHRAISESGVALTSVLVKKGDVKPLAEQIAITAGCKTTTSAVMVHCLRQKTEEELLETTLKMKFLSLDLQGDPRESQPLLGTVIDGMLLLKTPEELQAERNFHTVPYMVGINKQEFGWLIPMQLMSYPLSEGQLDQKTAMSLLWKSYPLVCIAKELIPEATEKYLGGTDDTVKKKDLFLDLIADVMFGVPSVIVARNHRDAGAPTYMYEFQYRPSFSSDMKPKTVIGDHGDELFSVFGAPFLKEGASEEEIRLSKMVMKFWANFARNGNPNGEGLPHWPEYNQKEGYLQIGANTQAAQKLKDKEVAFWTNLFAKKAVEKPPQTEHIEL

Blood = assay: Inhibition of LPS-induced TNFalpha production in human whole blood; type: functional, tissue-based
MAP kinase p38 [4] = target: T2, MAP kinase p38 (Homo sapiens, UniProt O15264+Q15759+Q16539+P53778); assay: Inhibition of p38 MAP kinase-mediated MAPKAPK2 phosphorylation in human Hut78 cells after 4 hrs by chemiluminescence assay; type: cell-based
THP-1 = assay: Inhibition of LPS-induced TNFalpha production in human THP1 cells; type: functional, cell-based
MAP kinase p38 [5] = target: T2, MAP kinase p38; assay: Inhibition of p38 MAP kinase-mediated MAPKAPK2 phosphorylation in human U937 cells after 4 hrs by chemiluminescence assay; type: cell-based; conditions: u-937
Liver carboxylesterase 1 [6] = target: T1, Liver carboxylesterase 1; assay: Drug metabolism in intact human U937 cells assessed as human CE1-mediated 5-(4-{6-Amino-5-[(2,4-difluorophenyl)carbonyl]-2-oxopyridiny1(2H)-yl}-3,5-difluorophenoxy)-L-norvaline formation per million cells at 2.5 uM after 6 hrs by LC/MS/MS analysis; type: ADME, cell-based; conditions: u-937, 6 h
HuT78 [7] = assay: Drug metabolism in human HUT78 cell lysate assessed as 5-(4-{6-Amino-5-[(2,4-difluorophenyl)carbonyl]-2-oxopyridiny1(2H)-yl}-3,5-difluorophenoxy)-L-norvaline formation at 2.5 uM after 10 to 80 mins by LC/MS/MS analysis; type: ADME, cell-based; conditions: hut78, 2.5 µM
HuT78 [8] = assay: Drug metabolism in intact human HUT78 cells assessed as N-[2-(4-{6-Amino-5-[(2,4-difluorophenyl)carbonyl]-2-oxopyridin-1(2H)-yl}-3,5 difluorophenyl)ethyl]-L-leucine formation per million cells at 2.5 uM after 6 hrs by LC/MS/MS analysis; type: ADME, cell-based; conditions: hut78, 6 h
HuT78 [9] = assay: Drug metabolism in human HUT78 cell lysate assessed as N-[2-(4-{6-Amino-5-[(2,4-difluorophenyl)carbonyl]-2-oxopyridin-1(2H)-yl}-3,5 difluorophenyl)ethyl]-L-leucine formation at 2.5 uM after 10 to 80 mins by LC/MS/MS analysis; type: ADME, cell-based; conditions: hut78, 2.5 µM
Liver carboxylesterase 1 [10] = target: T1, Liver carboxylesterase 1; assay: Drug metabolism in human U937 cell lysate assessed as human CE1-mediated N-[2-(4-{6-Amino-5-[(2,4-difluorophenyl)carbonyl]-2-oxopyridin-1(2H)-yl}-3,5 difluorophenyl)ethyl]-L-leucine formation at 2.5 uM after 10 to 80 mins by LC/MS/MS analysis; type: ADME, cell-based; conditions: u-937, 2.5 µM
Liver carboxylesterase 1 [11] = target: T1, Liver carboxylesterase 1; assay: Drug metabolism in intact human U937 cells assessed as human CE1-mediated N-[2-(4-{6-Amino-5-[(2,4-difluorophenyl)carbonyl]-2-oxopyridin-1(2H)-yl}-3,5 difluorophenyl)ethyl]-L-leucine formation per million cells at 2.5 uM after 6 hrs by LC/MS/MS analysis; type: ADME, cell-based; conditions: u-937, 6 h

Chain of Mitogen-activated protein kinase 14 (Q16539 whole entry): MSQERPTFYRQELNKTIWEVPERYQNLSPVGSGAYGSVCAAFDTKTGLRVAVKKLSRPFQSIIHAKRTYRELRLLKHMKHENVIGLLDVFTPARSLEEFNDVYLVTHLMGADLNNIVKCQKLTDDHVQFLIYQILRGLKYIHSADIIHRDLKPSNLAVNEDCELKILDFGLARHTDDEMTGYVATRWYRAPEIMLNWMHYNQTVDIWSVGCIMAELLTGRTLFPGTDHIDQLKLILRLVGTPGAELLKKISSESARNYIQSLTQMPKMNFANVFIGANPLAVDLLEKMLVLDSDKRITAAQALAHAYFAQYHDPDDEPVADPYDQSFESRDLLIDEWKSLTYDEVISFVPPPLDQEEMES

Structure (SMILES) | IC50 [1] [nM] | Drug metabolism (HuT78 [2]) [ng] | Drug metabolism (Liver carboxylesterase 1 [3]) [pg/mL/min] | IC50 (Blood) [nM] | IC50 (MAP kinase p38 [4]) [nM] | IC50 (THP-1) [nM] | IC50 (MAP kinase p38 [5]) [nM] | Drug metabolism (Liver carboxylesterase 1 [6]) [ng] | Drug metabolism (HuT78 [7]) [pg/mL/min] | Drug metabolism (HuT78 [8]) [ng] | Drug metabolism (HuT78 [9]) [pg/mL/min] | Drug metabolism (Liver carboxylesterase 1 [10]) [pg/mL/min] | Drug metabolism (Liver carboxylesterase 1 [11]) [ng]
Nc1c(C(=O)c2ccc(F)cc2F)ccc(=O)n1-c1c(F)cc(OCCC[C@H](N)C(=O)O)cc1F | 1 |  |  |  |  |  |  |  |  |  |  |  | 
Nc1c(C(=O)c2ccc(F)cc2F)ccc(=O)n1-c1c(F)cc(OCCC[C@H](N)C(=O)OC2CCCC2)cc1F | 6.5 | 727 | 10613 | 28.8 | 1 | 1.4 | 1 | 1407 | 14326 |  |  |  | 
CC(C)C[C@H](NCCc1cc(F)c(-n2c(N)c(C(=O)c3ccc(F)cc3F)ccc2=O)c(F)c1)C(=O)O | 1.2 |  |  |  |  |  |  |  |  |  |  |  | 

Continued by falling IC50 [1], values first:

IC50 [1] [nM] | Drug metabolism (HuT78 [2]) [ng] | Drug metabolism (Liver carboxylesterase 1 [3]) [pg/mL/min] | IC50 (Blood) [nM] | IC50 (MAP kinase p38 [4]) [nM] | IC50 (THP-1) [nM] | IC50 (MAP kinase p38 [5]) [nM] | Drug metabolism (Liver carboxylesterase 1 [6]) [ng] | Drug metabolism (HuT78 [7]) [pg/mL/min] | Drug metabolism (HuT78 [8]) [ng] | Drug metabolism (HuT78 [9]) [pg/mL/min] | Drug metabolism (Liver carboxylesterase 1 [10]) [pg/mL/min] | Drug metabolism (Liver carboxylesterase 1 [11]) [ng] | Structure (SMILES)
273 |  |  | 57.5 | 73 | 0.74 | 0.65 |  |  | 0.5 | < 20 | 3036 | 606 | CC(C)C[C@H](NCCc1cc(F)c(-n2c(N)c(C(=O)c3ccc(F)cc3F)ccc2=O)c(F)c1)C(=O)OC1CCCC1
1.86 |  |  | 182 | 10 | 1.5 | 10 |  |  |  |  |  |  | Nc1c(C(=O)c2ccc(F)cc2F)ccc(=O)n1-c1c(F)cccc1F
